Measured values published in patent US8901118B2, “Compounds and methods for kinase modulation, and indications therefor” (Plexxikon Inc., priority 2010, dated 2014).

Key:
c-Kit kinase = c-Kit kinase (Homo sapiens, UniProt P10721); test: c-Kit kinase biochemical activity assay (AlphaScreen, biotin-(E4Y)10 phosphorylation); conditions: 100 μM ATP; read-out: Biochemical Inhibition IC50 Kit
Description: Assays for biochemical and cell based activity are known in the art, for example, U.S. Patent Application Publication Number 2009/0076046, the disclosure of which is hereby incorporated by reference as it relates to such assays. For example, in one assay the biochemical activity IC50 values are determined with respect to inhibition of c-Kit kinase activity, where inhibition of phosphorylation of a peptide substrate is measured as a function of compound concentration. Compounds to be tested are dissolved in DMSO to a concentration of 20 mM. These are diluted 30 μL into 120 μL of DMSO (4 mM) and 1 μL is added to an assay plate. These are then serially diluted […] (50 μL to 100 μL DMSO) for a total of 8 points. Plates are prepared such that each kinase reaction is 20 μL in 1× kinase buffer (25 mM HEPES, pH 7.5, 2 mM MgCl2, 2 mM MnCl2, 0.01% Tween-20, 1 mM DTT, 0.01% BSA), 5% DMSO and 100 μM ATP. Substrate is 30 nM biotin-(E4Y) 10 (Millipore). C-kit kinase (obtained from Millipore (#14-559) or is prepared as described in U.S. Patent Application Publication Number 2009/0076046, the disclosure of which is hereby incorporated by reference as it relates to this assay) is at 0.75 ng per sample. After incubation of the kinase reaction for 1 hour at room temperature, 5 μL of donor beads (Streptavidin coated beads (Perkin Elmer Life Science) final concentration 10 μg/mL) in stop buffer (25 mM Hepes pH 7.5, 100 mM EDTA, 0.01% BSA) is added, the sample is mixed and incubated for 20 minutes at room temperature before adding 5 μL of acceptor beads (PY20 coated beads (Perkin Elmer Life Science) final concentration 10 μg/mL) in stop buffer. The samples are incubated for 60 minutes at room temperature and the signal per well is read on Envision reader. Phosphorylated substrate results in binding of the PY20 antibody and association of the donor and acceptor beads such that signal correlates with kinase activity. The signal vs. compound concentration is used to determine the IC50.

BCR-FMS BaF3 cells = target: T1, BCR-FMS BaF3 cells (Homo sapiens, UniProt P07333); test: BaF3 BCR-FMS cell proliferation assay (ATPlite); type: cell-based; conditions: read-out: Inhibition of Cell Proliferation IC50, BCR/BaF3 Fms
T1 construct: fused on or other part: P11274 (Breakpoint cluster region protein)
T1 sequence (P07333 582-910): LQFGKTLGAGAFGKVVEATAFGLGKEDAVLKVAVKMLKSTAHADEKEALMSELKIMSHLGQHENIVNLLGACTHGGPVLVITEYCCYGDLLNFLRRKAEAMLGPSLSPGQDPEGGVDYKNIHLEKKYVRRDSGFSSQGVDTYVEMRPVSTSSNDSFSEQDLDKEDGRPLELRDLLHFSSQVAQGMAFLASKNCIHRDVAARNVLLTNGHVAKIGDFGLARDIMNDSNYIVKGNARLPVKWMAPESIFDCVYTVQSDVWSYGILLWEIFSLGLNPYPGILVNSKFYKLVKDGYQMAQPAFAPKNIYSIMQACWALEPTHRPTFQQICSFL
Description: Compounds are assessed in a variety of cell based assays. For example BaF3 cells engineered with any of BCR-FMS, BCR-KIT, BCR-FLT3, BCR-NTRK1, BCR-NTRK2, and BCR-NTRK3, are used in cell proliferation assays to assess inhibitory activity of Fms, Kit, Flt-3, TrkA, TrkB, and TrkC, respectively. An MV-4-11 (leukemia) cell proliferation assay is used to assess inhibitory activity in Flt-3, and SKNSH (human neuroblastoma) cell proliferation assay is used to assess efficacy of Fms/Trk inhibitors. Additional cells may be assayed similarly to assess the efficacy of Fms/Trk inhibitors, such as MiaPaCa (human pancreatic cancer) and Capan-1 (human pancreatic carcinoma) cells. Reagent and assay conditions are as follows: • BaF3 cells: • Maintained in RPMI containing 10% FBS, 1% PenStrep, 1% NEAA, and 1% L-Glutamine, supplemented with 1 mg/mL G418 and 5% WEHI-CM (or recombinant murine IL-3). • Confluent cells are split 1:50 to 1:100 every 3-4 days. • MV-4-11 cells: • Maintained in Iscove's Modified Dulbecco's Medium containing 10% FBS. • Confluent cells are split 1:4 every 3-4 days. • SKNSH cells: RPMI containing 10% FBS. On day 1, cells are counted, then centrifuged in a conical tube for 5 minutes at 1000 rpm. The supernatant is removed and cells are re-suspended as follows: • BaF3: resuspend in growth media +1 mg/mL G418 (without WEHFIL-3) to 2×10^5 cells/mL. • MV-4-11: resuspend in growth media to 5×10^5 cells/mL. • SKNSH: resuspend in growth media to 2×10^4 cells/mL. The cells are plated (50 μL, 150 μL for SKNSH cells) in each well of a 96-well dish (Corning 3610) and incubated at 37° C. in 5% CO2 overnight, cells plated to a final concentration of cells as follows: • BaF3: 10,000 cells per well. • MV-4-11: 25,000 cells per well. • SKNSH: 3,000 cells per well. On day 2, compound at a maximum concentration of 5 mM is serially diluted 1:3 for a total of 8 point titration with DMSO as a control. A 1 μL aliquot of each dilution point is added to 249 μL growth media and 50 μL is added to a well containing cells, providing 10 μM compound for the maximum concentration point. The cells are incubated for 3 days at 37° C. in 5% CO2. For SKNSH cells, a 0.75 μL aliquot of appropriate dilution in DMSO is added to 150 μL of cells. On day 5, ATPlite 1 step Luminescence Assay System (Perkin Elmer #6016739) is brought to room temperature along with the cell cultures. ATPlite is added to each well as follows: • BaF3: 25 μL per well. • MV-4-11: 40 μL per well. • SKNSH: 20 μL per well. The cells are incubated at room temperature for 10 minutes, then luminescence is read on Safire reader. The measured luminescence correlates directly with cell number, such that the reading as a function of compound concentration is used to determine the IC50 value.
It is understood that the results of these assays may vary as assay conditions are varied. Inhibition levels determined under the conditions described herein represent a relative activity for the compounds tested under the specific conditions employed. The cell based assays are likely to show variability due to the complexity of the system and the sensitivity thereof to any changes in the assay conditions. […] Results for compounds that are tested and show substantially no inhibition below the highest tested concentration are represented as “-” in the tables below. In some instances, the compounds were not tested in all of the assays, or assay results were not valid, as indicated by NA in the tables below.

Chain of c-Kit kinase (P10721 26-976): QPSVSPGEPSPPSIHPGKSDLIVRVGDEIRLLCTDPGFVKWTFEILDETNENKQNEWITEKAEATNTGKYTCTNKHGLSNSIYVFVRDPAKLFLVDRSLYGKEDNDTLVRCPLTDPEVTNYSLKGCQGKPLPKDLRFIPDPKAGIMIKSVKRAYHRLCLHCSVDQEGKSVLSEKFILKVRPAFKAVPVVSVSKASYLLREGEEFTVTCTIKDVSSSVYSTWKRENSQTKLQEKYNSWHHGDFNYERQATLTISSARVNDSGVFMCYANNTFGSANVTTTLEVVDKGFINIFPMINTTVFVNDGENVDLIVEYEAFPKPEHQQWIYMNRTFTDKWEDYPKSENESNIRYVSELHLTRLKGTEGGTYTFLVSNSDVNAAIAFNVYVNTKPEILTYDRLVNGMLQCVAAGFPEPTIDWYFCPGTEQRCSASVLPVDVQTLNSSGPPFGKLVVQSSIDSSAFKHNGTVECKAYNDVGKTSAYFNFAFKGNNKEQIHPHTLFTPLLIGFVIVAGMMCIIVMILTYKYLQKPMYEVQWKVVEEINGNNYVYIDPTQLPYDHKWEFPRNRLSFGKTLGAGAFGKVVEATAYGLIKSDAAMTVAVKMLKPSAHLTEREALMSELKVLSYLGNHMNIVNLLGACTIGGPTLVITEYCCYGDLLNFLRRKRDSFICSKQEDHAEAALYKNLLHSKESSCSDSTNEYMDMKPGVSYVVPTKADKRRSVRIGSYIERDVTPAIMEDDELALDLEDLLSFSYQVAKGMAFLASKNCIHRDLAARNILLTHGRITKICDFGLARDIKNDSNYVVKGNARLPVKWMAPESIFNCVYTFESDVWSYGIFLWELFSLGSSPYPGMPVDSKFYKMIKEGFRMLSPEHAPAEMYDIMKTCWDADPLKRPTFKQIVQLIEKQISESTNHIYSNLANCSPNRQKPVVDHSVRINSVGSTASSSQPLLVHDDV

Row | SMILES | IC50 (c-Kit kinase) | IC50 (BCR-FMS BaF3 cells)
1 | CCc1ccc(Nc2ccc(C(=O)c3c[nH]c4ncnc(NCC(C)(C)O)c34)c(F)n2)cn1 [Compound P-4064, [6-[(6-ethyl-3-pyridyl)amino]-2-fluoro-3-pyridyl]-[4-[(2-hydroxy-2-methyl-propyl)amino]-7H-pyrrolo[2,3-d]pyrimidin-5-yl]methanone] | < 100 nM | < 100 nM
2 | CCc1ccc(Nc2ccc(C(=O)c3c[nH]c4ncnc(N)c34)c(F)n2)cn1 [Compound P-4065, (4-amino-7H-pyrrolo[2,3-d]pyrimidin-5-yl)-[6-[(6-ethyl-3-pyridyl)amino]-2-fluoro-3-pyridyl]methanone] | < 100 nM | < 100 nM
3 | COc1ccc(Nc2ccc(C(=O)c3c[nH]c4ncnc(NC(C)C)c34)c(F)n2)cn1 [Compound P-4066, [2-fluoro-6-[(6-methoxy-3-pyridyl)amino]-3-pyridyl]-[4-(isopropylamino)-7H-pyrrolo[2,3-d]pyrimidin-5-yl]methanone] | < 100 nM | < 10 nM
4 | COc1ccc(Nc2ccc(C(=O)c3c[nH]c4ncnc(NCC5CC5)c34)c(F)n2)cn1 [Compound P-4067, [4-(cyclopropylmethylamino)-7H-pyrrolo[2,3-d]pyrimidin-5-yl]-[2-fluoro-6-[(6-methoxy-3-pyridyl)amino]-3-pyridyl]methanone] | < 1000 nM | < 10 nM
5 | CCCNc1ncnc2[nH]cc(C(=O)c3ccc(Nc4ccc(OC)nc4)nc3F)c12 [Compound P-4068, [2-fluoro-6-[(6-methoxy-3-pyridyl)amino]-3-pyridyl]-[4-(propylamino)-7H-pyrrolo[2,3-d]pyrimidin-5-yl]methanone] | < 100 nM | < 10 nM
6 | COc1ccc(Nc2ccc(C(=O)c3c[nH]c4ncnc(N5CCCCC5)c34)c(F)n2)cn1 [Compound P-4069, [2-fluoro-6-[(6-methoxy-3-pyridyl)amino]-3-pyridyl]-[4-(1-piperidyl)-7H-pyrrolo[2,3-d]pyrimidin-5-yl]methanone] | > 1000 nM | > 1000 nM
7 | COc1ccc(Nc2ccc(C(=O)c3c[nH]c4ncnc(N5CCOCC5)c34)c(F)n2)cn1 [Compound P-4070, [2-fluoro-6-[(6-methoxy-3-pyridyl)amino]-3-pyridyl]-(4-morpholino-7H-pyrrolo[2,3-d]pyrimidin-5-yl)methanone] | > 1000 nM | > 1000 nM
8 | COc1ccc(Nc2ccc(C(=O)c3c[nH]c4ncnc(NCc5ccc(C(F)(F)F)nc5)c34)c(F)n2)cn1 [Compound P-4071, [2-fluoro-6-[(6-methoxy-3-pyridyl)amino]-3-pyridyl]-[4-[[6-(trifluoromethyl)-3-pyridyl]methylamino]-7H-pyrrolo[2,3-d]pyrimidin-5-yl]methanone] | > 1000 nM | < 100 nM

Now from value to molecule:

Row | IC50 (c-Kit kinase) | IC50 (BCR-FMS BaF3 cells) | SMILES
9 | > 1000 nM | < 100 nM | COc1ccc(Nc2ccc(C(=O)c3c[nH]c4ncnc(N[C@@H](C)c5ccc(F)cc5)c34)c(F)n2)cn1 [Compound P-4072, [2-fluoro-6-[(6-methoxy-3-pyridyl)amino]-3-pyridyl]-[4-[[(1S)-1-(4-fluorophenyl)ethyl]amino]-7H-pyrrolo[2,3-d]pyrimidin-5-yl]methanone]
10 | < 1000 nM | < 100 nM | COc1ccc(Nc2ccc(C(=O)c3c[nH]c4ncnc(NCC5CCCO5)c34)c(F)n2)cn1 (centres unmarked) [Compound P-4073, [2-fluoro-6-[(6-methoxy-3-pyridyl)amino]-3-pyridyl]-[4-(tetrahydrofuran-2-ylmethylamino)-7H-pyrrolo[2,3-d]pyrimidin-5-yl]methanone]
11 | < 1000 nM | < 1000 nM | CCN1CCC(Nc2ncnc3[nH]cc(C(=O)c4ccc(Nc5ccc(OC)nc5)nc4F)c23)CC1 [Compound P-4074, [4-[(1-ethyl-4-piperidyl)amino]-7H-pyrrolo[2,3-d]pyrimidin-5-yl]-[2-fluoro-6-[(6-methoxy-3-pyridyl)amino]-3-pyridyl]methanone]
12 | < 1000 nM | < 10 nM | COc1ccc(Nc2ccc(C(=O)c3c[nH]c4ncnc(NC5CCCC5)c34)c(F)n2)cn1 [Compound P-4075, [4-(cyclopentylamino)-7H-pyrrolo[2,3-d]pyrimidin-5-yl]-[2-fluoro-6-[(6-methoxy-3-pyridyl)amino]-3-pyridyl]methanone]
13 | < 100 nM | < 100 nM | COc1ccc(Nc2ccc(C(=O)c3c[nH]c4ncnc(NC5CCC5)c34)c(F)n2)cn1 [Compound P-4076, [4-(cyclobutylamino)-7H-pyrrolo[2,3-d]pyrimidin-5-yl]-[2-fluoro-6-[(6-methoxy-3-pyridyl)amino]-3-pyridyl]methanone]
14 | < 1000 nM | < 10 nM | CCC(CC)Nc1ncnc2[nH]cc(C(=O)c3ccc(Nc4ccc(OC)nc4)nc3F)c12 [Compound P-4077, [4-(1-ethylpropylamino)-7H-pyrrolo[2,3-d]pyrimidin-5-yl]-[2-fluoro-6-[(6-methoxy-3-pyridyl)amino]-3-pyridyl]methanone]
15 | < 1000 nM | < 10 nM | CCC(C)Nc1ncnc2[nH]cc(C(=O)c3ccc(Nc4ccc(OC)nc4)nc3F)c12 (centres unmarked) [Compound P-4078, [2-fluoro-6-[(6-methoxy-3-pyridyl)amino]-3-pyridyl]-[4-(sec-butylamino)-7H-pyrrolo[2,3-d]pyrimidin-5-yl]methanone]
16 | < 100 nM | < 100 nM | COCCCNc1ncnc2[nH]cc(C(=O)c3ccc(Nc4ccc(OC)nc4)nc3F)c12 [Compound P-4079, [2-fluoro-6-[(6-methoxy-3-pyridyl)amino]-3-pyridyl]-[4-(3-methoxypropylamino)-7H-pyrrolo[2,3-d]pyrimidin-5-yl]methanone]
